In US11040981B2, “Pyrrolotriazine compounds and methods of inhibiting TAM kinases” (Syros Pharmaceuticals, Inc., priority 2017, dated 2021):
pIC50: −log10 of the molar value.

Assays:
AXL = target: T1, AXL (Homo sapiens, UniProt P30530); assay: TR-FRET kinase activity assay, AXL; format: biochemical; details: ATP at Km, 60 minutes
T1 sequence (P30530 26-894): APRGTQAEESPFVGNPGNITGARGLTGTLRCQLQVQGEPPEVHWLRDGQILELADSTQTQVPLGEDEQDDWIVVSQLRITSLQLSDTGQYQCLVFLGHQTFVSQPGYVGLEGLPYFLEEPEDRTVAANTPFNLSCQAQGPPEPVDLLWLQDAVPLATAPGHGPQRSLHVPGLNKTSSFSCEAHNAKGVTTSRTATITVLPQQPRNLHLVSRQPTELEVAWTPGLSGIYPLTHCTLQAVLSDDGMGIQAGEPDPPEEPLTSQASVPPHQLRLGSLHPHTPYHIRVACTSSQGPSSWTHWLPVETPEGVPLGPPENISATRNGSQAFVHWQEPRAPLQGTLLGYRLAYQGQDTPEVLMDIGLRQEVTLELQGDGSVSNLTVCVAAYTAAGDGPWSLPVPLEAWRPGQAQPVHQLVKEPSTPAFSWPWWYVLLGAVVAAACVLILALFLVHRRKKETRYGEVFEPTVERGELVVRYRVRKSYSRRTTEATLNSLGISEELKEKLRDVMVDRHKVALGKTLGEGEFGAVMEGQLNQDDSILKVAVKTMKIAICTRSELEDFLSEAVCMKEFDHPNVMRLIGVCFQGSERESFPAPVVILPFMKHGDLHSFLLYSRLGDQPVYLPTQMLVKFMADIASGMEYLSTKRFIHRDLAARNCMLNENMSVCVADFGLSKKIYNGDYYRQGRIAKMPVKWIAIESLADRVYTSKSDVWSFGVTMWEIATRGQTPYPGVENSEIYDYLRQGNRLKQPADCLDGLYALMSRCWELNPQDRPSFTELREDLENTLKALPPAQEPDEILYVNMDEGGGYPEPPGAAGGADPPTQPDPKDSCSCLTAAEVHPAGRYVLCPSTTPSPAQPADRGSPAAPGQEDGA
Method in brief: (§1)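 Compounds were tested against each kinase with ATP set at its own Km and a labelled tyrosine peptide substrate. Following one hour at room temperature in buffer containing 10 mM MgCl2 and 1 mM DTT, phosphorylated product was detected by Europium antibody TR-FRET after EDTA quench, and IC50 values were calculated.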

MERTK = target: T2, MERTK (Homo sapiens, UniProt Q12866); assay: TR-FRET kinase activity assay, MERTK; format: biochemical; details: for pIC50: TR-FRET activity assay, ATP at Km, 60 minutes, read-out: Mer IC50
T2 sequence (Q12866 21-999): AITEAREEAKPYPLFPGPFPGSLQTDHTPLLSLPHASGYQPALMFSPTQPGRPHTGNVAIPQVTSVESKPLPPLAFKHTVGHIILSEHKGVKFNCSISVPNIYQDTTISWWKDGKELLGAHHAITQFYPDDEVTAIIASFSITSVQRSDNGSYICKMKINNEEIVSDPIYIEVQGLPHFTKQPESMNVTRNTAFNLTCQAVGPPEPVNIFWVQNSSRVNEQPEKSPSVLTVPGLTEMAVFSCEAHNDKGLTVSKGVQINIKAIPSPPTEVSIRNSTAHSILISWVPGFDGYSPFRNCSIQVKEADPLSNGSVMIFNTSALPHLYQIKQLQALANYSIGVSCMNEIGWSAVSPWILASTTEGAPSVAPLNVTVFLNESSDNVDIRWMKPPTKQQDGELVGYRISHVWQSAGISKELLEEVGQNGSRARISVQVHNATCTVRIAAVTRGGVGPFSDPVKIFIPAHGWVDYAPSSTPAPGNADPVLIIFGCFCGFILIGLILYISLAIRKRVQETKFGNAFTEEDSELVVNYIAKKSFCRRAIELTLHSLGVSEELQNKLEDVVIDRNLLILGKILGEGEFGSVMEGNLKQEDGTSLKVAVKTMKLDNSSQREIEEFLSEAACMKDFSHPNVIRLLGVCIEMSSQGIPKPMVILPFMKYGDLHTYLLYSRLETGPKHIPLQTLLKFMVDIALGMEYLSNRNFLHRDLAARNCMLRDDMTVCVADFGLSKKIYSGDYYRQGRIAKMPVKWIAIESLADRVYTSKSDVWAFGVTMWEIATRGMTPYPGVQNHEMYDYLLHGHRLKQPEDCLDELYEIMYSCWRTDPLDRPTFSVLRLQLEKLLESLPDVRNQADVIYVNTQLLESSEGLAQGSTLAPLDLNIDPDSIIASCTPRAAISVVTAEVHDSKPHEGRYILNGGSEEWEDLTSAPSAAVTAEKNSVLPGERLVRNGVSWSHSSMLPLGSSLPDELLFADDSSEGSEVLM
Method in brief: as §1

[1] = ratio of Mer to FLT3: FLT3 IC50/Mer IC50
[2] = ratio calculated as FLT3 IC50/Mer IC50

Structure (SMILES) | pIC50 (AXL) | pIC50 (MERTK) | FLT3/Mer ratio (FLT3 IC50/Mer IC50) (MERTK; [1]) | FLT3/Mer ratio (FLT3 IC50/Mer IC50) (MERTK; [2])
COCC(C)Nc1ncc2c(C3CCN(c4ccnc(C)n4)C3)cc(C3CCC(O)CC3)n2n1 (stereo not drawn) [Compound 374] | ≥ 7.00 | ≥ 7.00 | +++ (“+++” represents a ratio of >100) | –
CC(C)Nc1ncc2c(-c3ccnc(N4CCOCC4)c3)cc([C@H]3CC[C@H](O)CC3)n2n1 [Compound 350] | ≥ 7.00 | ≥ 7.00 | +++ (“+++” represents a ratio of >100) | –
COC[C@H](C)Nc1ncc2c([C@H]3CCN(S(C)(=O)=O)C3)cc([C@H]3CC[C@H](O)CC3)n2n1 [Compound 376] | 6.00 to 7.00 | ≥ 7.00 | +++ (“+++” represents a ratio of >100) | –
CCCCC[C@H](C)Nc1ncc2c([C@H]3CC[C@@H](C(=O)O)CC3)cc([C@H]3CC[C@H](O)CC3)n2n1 [Compound 125, (cis)-4-(2-((S)-heptan-2-ylamino)-7-((trans)-4-hydroxycyclohexyl)pyrrolo[2,1-f][1,2,4]triazin-5-yl)cyclohexanecarboxylic acid] | 6.00 to 7.00 | ≥ 7.00 | ++ (“++” represents a ratio of between 10 and 100) | –
COC[C@H](C)Nc1ncc2c([C@@H]3CCCN(C(C)=O)C3)cc([C@H]3CC[C@H](O)CC3)n2n1 [Compound 372] | 5.00 to 6.00 | 6.00 to 7.00 | ++ (“++” represents a ratio of between 10 and 100) | –
COC[C@H](C)Nc1ncc2c(-c3cnn([C@@H]4CCC(C(=O)OC(C)(C)C)C4)c3)cc([C@H]3CC[C@H](O)CC3)n2n1 (stereo partly drawn) [Compound 364] | ≥ 7.00 | ≥ 7.00 | +++ (“+++” represents a ratio of >100) | –
CC[C@H](C)Nc1ncc2c(-c3cncc(S(C)(=O)=O)c3)cc([C@H]3CC[C@@H](O)CC3)n2n1 [Compound 120] | 6.00 to 7.00 | ≥ 7.00 | +++ (“+++” represents a ratio of >100) | –
COC[C@H](C)Nc1ncc2c(-c3ccnc(N4CCS(=O)(=O)CC4)c3)cc([C@H]3CC[C@H](O)CC3)n2n1 [Compound 357] | ≥ 7.00 | ≥ 7.00 | +++ (“+++” represents a ratio of >100) | –
CN1CCN(Cc2ccc(-c3cc(C4CCC(O)CC4)n4nc(NC5CCC5(C)C)ncc34)cc2)CC1 (mixture of isomers) [Compound 121] | 6.00 to 7.00 | ≥ 7.00 | ++ (“++” represents a ratio of between 10 and 100) | –
COC[C@H](C)Nc1ncc2c(-c3ccnc(O[C@@H]4CCNC4)c3)cc([C@H]3CC[C@H](O)CC3)n2n1 [Compound 401] | ≥ 7.00 | ≥ 7.00 | – | +++ (“+++” represents a ratio of >100)
C[C@@H](CC(F)(F)F)Nc1ncc2c(-c3ccnc(N4CCOCC4)c3)cc([C@H]3CC[C@H](O)CC3)n2n1 [Compound 346] | ≥ 7.00 | ≥ 7.00 | +++ (“+++” represents a ratio of >100) | –
COC[C@H](C)Nc1ncc2c(-c3cnn([C@@H]4CO[C@H]5OCC[C@H]54)c3)cc([C@H]3CC[C@H](O)CC3)n2n1 [Compound 422] | ≥ 7.00 | ≥ 7.00 | – | +++ (“+++” represents a ratio of >100)
O[C@H]1CC[C@H](c2cc(-c3ccnc(N4CCOCC4)c3)c3cnc(N[C@H]4CCOC4)nn32)CC1 [Compound 362] | ≥ 7.00 | ≥ 7.00 | ++ (“++” represents a ratio of between 10 and 100) | –
CC(=O)N1CCN(Cc2ccc(-c3cc(C4CCC(O)CC4)n4nc(NC(C)CC(F)(F)F)ncc34)cc2)CC1 (stereo not drawn) [Compound 370] | ≥ 7.00 | ≥ 7.00 | + (“+” represents a ratio of >2.0 and <10) | –
O[C@H]1CC[C@H](c2cc(-c3ccnc(N4CCOCC4)c3)c3cnc(NCCC(F)(F)F)nn32)CC1 [Compound 363] | ≥ 7.00 | ≥ 7.00 | + (“+” represents a ratio of >2.0 and <10) | –
CNC(=O)c1cc(-c2cc([C@H]3CC[C@H](O)CC3)n3nc(N[C@@H](C)CC(F)(F)F)ncc23)ccn1 [Compound 384] | ≥ 7.00 | ≥ 7.00 | +++ (“+++” represents a ratio of >100) | –
COC[C@H](C)Nc1ncc2c(-c3ccnc(OC4CCNCC4)c3)cc([C@H]3CC[C@H](O)CC3)n2n1 [Compound 369] | ≥ 7.00 | ≥ 7.00 | +++ (“+++” represents a ratio of >100) | –
COCC(C)Nc1ncc2c(C3CCN(C(C)=O)C3)cc(C3CCC(O)CC3)n2n1 (mixture of isomers) [Compound 383] | 6.00 to 7.00 | ≥ 7.00 | +++ (“+++” represents a ratio of >100) | –
COC[C@H](C)Nc1ncc2c(-c3ccnc(O[C@@H]4CCCN(C)C4)c3)cc([C@H]3CC[C@H](O)CC3)n2n1 [Compound 404] | ≥ 7.00 | ≥ 7.00 | – | +++ (“+++” represents a ratio of >100)
CCC(C)Nc1ncc2c(C)cc(C3CCC(O)CC3)n2n1 (stereo not drawn) [Compound 123] | 5.00 to 6.00 | ≥ 7.00 | +++ (“+++” represents a ratio of >100) | –
COCC(C)Nc1ncc2c(-c3cnn(CC4CCCO4)c3)cc(C3CCC(O)CC3)n2n1 (stereo not drawn) [Compound 379] | ≥ 7.00 | ≥ 7.00 | +++ (“+++” represents a ratio of >100) | –
OC1CCC(c2cc(-c3ccnc(N4CCOCC4)c3)c3cnc(NCCC4CC4)nn23)CC1 (stereo not drawn) [Compound 359] | ≥ 7.00 | ≥ 7.00 | + (“+” represents a ratio of >2.0 and <10) | –
C[C@@H](COC(F)F)Nc1ncc2c(-c3ccnc(N4CCOCC4)c3)cc([C@H]3CC[C@H](O)CC3)n2n1 [Compound 405] | ≥ 7.00 | ≥ 7.00 | – | +++ (“+++” represents a ratio of >100)
COC[C@H](C)Nc1ncc2c(-c3ccnc(C)c3)cc([C@H]3CC[C@@](C)(O)CC3)n2n1 [Compound 381] | ≥ 7.00 | ≥ 7.00 | +++ (“+++” represents a ratio of >100) | –
COC[C@H](C)Nc1ncc2c(-c3cnn(CS(C)(=O)=O)c3)cc([C@H]3CC[C@H](O)CC3)n2n1 [Compound 419] | ≥ 7.00 | ≥ 7.00 | – | +++ (“+++” represents a ratio of >100)
COC[C@H](C)Nc1ncc2c([C@H]3CCCN(c4ccnc(C)n4)C3)cc([C@H]3CC[C@H](O)CC3)n2n1 [Compound 377] | 6.00 to 7.00 | ≥ 7.00 | +++ (“+++” represents a ratio of >100) | –
OC1CCC(c2cc(-c3ccnc(N4CCOCC4)c3)c3cnc(NC4CCOC4)nn23)CC1 (stereo not drawn) [Compound 356] | ≥ 7.00 | ≥ 7.00 | ++ (“++” represents a ratio of between 10 and 100) | –
